From patent US20220389061A1, “IMMUNOMODULATORS” (priority 2019, published 2022)
Read-outs that look alike come from different tables or passages of the source. Starred links: 1 amine or outer side, 2 acyl side, 3 side chain; linkers in the order of their positions; H or OH if unused. Positions of bridges follow the written chain, without caps; N, C: chain ends. Non-standard residues stand in square brackets, D forms with d. Residues, ends and D or L forms follow the SMILES beside them. Groups on a side chain read outwards from the residue. *: point of attachment. Trp(1-CH2CO2Me) = COC(=O)Cn1cc(C[C@H](N)C(=O)O)c2ccccc21; Trp(1-CH2COOH) = N[C@@H](Cc1cn(CC(=O)O)c2ccccc12)C(=O)O; Benzofuran(2-CO) = O=C(c1cc2ccccc2o1)*; X23 = COc1cc(NC(=S)*)ccc1-n1cnc(Cl)c1; 2Naphthoyl = O=C(c1ccc2ccccc2c1)*; X49 = N#Cc1ccccc1NC(=N)c1ccccc1N*; Hyp = O=C(O)[C@@H]1C[C@@H](O)CN1; X27 = Cc1cc([N+](=O)[O-])ccc1N*; X53 = Cc1nc(-c2cccnc2)sc1C(=O)*; X78 = S=C(Nc1c(Cl)cc(Cl)cc1Cl)*; X55 = COc1cc(NC(=S)*)cc(OC)c1; NMeNle = CCCC[C@H](NC)C(=O)O; X92 = FC(F)(F)c1cc(Cl)ccc1N*; X20 = O=C(Oc1ccc2ccccc2c1)*; X59 = S=C(Nc1ccc2nsnc2c1)*; X6 = CCCCCCCOc1ccc(N*)cc1; NMeA = CN[C@@H](C)C(=O)O; Dab = NCC[C@H](N)C(=O)O; X39 = CCCCOc1ccc(N*)cc1; X45 = c1ccc2sc(N*)cc2c1; Dap = NC[C@H](N)C(=O)O; CO = O=C([*:1])[*:2]

Biological target: T1, PD-1/PD-L1 (Homo sapiens, UniProt Q9NZQ7)
T1 construct: TVMV protease site linker (C); made in house; host or cells: HEK293T cells
T1 sequence (Q9NZQ7 18-239): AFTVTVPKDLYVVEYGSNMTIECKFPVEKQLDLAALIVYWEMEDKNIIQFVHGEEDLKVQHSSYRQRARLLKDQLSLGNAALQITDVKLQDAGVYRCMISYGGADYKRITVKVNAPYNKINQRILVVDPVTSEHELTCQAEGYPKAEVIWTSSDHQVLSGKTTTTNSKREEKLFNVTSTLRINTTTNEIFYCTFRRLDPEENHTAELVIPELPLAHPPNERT
Assay: PD-1/PD-L1 Homogenous Time-Resolved Fluorescence (HTRF) binding assay
In short: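 Compounds preincubated 15 min with PD-L1-His (10 nM final), then PD-1-Ig (20 nM final) added for 15 min in dPBS with 0.1% BSA, 0.05% Tween-20. Detection by Eu-cryptate anti-Ig (1 nM) and APC anti-His (20 nM) HTRF.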

[1] = PD-L1-His 10 nM pre-incubated with inhibitor, PD-1-Ig 20 nM, read-out: HTRF IC50

SMILES | IC50 [1] [nM] | IC50 [nM]
CCCC[C@H]1C(=O)N(C)[C@@H](CCCC)C(=O)N[C@@H](CC(C)C)C(=O)N[C@H](C(=O)NCC(N)=O)CSCC(=O)N[C@@H](Cc2ccc(O)cc2)C(=O)N(C)[C@@H](C)C(=O)N[C@@H](CC(N)=O)C(=O)N2CCC[C@H]2C(=O)N[C@@H](CNC(=S)Nc2ccc(-n3cnc(Cl)c3)c(OC)c2)C(=O)N[C@@H](CC(C)C)C(=O)N2C[C@H](O)C[C@H]2C(=O)N[C@@H](Cc2c[nH]c3ccccc23)C(=O)N[C@@H](CCNC(=S)Nc2ccc(-n3cnc(Cl)c3)c(OC)c2)C(=O)N[C@@H](Cc2cn(CC(=O)O)c3ccccc23)C(=O)N1C [Example 1091] ({CH2CO}-Y[NMeA]NP[Dap](X23)L[Hyp]W[Dab](X23)[Trp(1-CH2COOH)][NMeNle][NMeNle]LCG-NH2; thioether N-14) | 4.3 | –
CCCC[C@H]1C(=O)N(C)[C@@H](CCCC)C(=O)N[C@@H](CC(C)C)C(=O)N[C@H](C(=O)NCC(N)=O)CSCC(=O)N[C@@H](Cc2ccc(O)cc2)C(=O)N(C)[C@@H](C)C(=O)N[C@@H](CC(N)=O)C(=O)N2CCC[C@H]2C(=O)N[C@@H](CNC(=O)Nc2ccccc2C(=N)Nc2ccccc2C#N)C(=O)N[C@@H](CC(C)C)C(=O)N2C[C@H](O)C[C@H]2C(=O)N[C@@H](Cc2c[nH]c3ccccc23)C(=O)N[C@@H](CCNC(=S)Nc2cc(OC)cc(OC)c2)C(=O)N[C@@H](Cc2cn(CC(=O)O)c3ccccc23)C(=O)N1C [Example 1088] ({CH2CO}-Y[NMeA]NP[Dap]([CO-X49])L[Hyp]W[Dab](X55)[Trp(1-CH2COOH)][NMeNle][NMeNle]LCG-NH2; thioether N-14) | 2.9 | –
CCCC[C@H]1C(=O)N(C)[C@@H](CCCC)C(=O)N[C@@H](CC(C)C)C(=O)N[C@H](C(=O)NCC(N)=O)CSCC(=O)N[C@@H](Cc2ccc(O)cc2)C(=O)N(C)[C@@H](C)C(=O)N[C@@H](CC(N)=O)C(=O)N2CCC[C@H]2C(=O)N[C@@H](CNC(=O)c2cc3ccccc3o2)C(=O)N[C@@H](CC(C)C)C(=O)N2C[C@H](O)C[C@H]2C(=O)N[C@@H](Cc2c[nH]c3ccccc23)C(=O)N[C@@H](CCNC(=O)c2cc3ccccc3o2)C(=O)N[C@@H](Cc2cn(CC(=O)OC)c3ccccc23)C(=O)N1C [Example 3012] ({CH2CO}-Y[NMeA]NP[Dap](Benzofuran(2-CO))L[Hyp]W[Dab](Benzofuran(2-CO))[Trp(1-CH2CO2Me)][NMeNle][NMeNle]LCG-NH2; thioether N-14) | 5.3 | –
CCCC[C@H]1C(=O)N(C)[C@@H](CCCC)C(=O)N[C@@H](CC(C)C)C(=O)N[C@H](C(=O)NCC(N)=O)CSCC(=O)N[C@@H](Cc2ccc(O)cc2)C(=O)N(C)[C@@H](C)C(=O)N[C@@H](CC(N)=O)C(=O)N2CCC[C@H]2C(=O)N[C@@H](CNC(=O)c2sc(-c3cccnc3)nc2C)C(=O)N[C@@H](CC(C)C)C(=O)N2C[C@H](O)C[C@H]2C(=O)N[C@@H](Cc2c[nH]c3ccccc23)C(=O)N[C@@H](CCNC(=O)c2sc(-c3cccnc3)nc2C)C(=O)N[C@@H](Cc2cn(CC(=O)OC)c3ccccc23)C(=O)N1C [Example 1008] ({CH2CO}-Y[NMeA]NP[Dap](X53)L[Hyp]W[Dab](X53)[Trp(1-CH2CO2Me)][NMeNle][NMeNle]LCG-NH2; thioether N-14) | 7.6 | –
CCCCCCCOc1ccc(NC(=O)NC[C@@H]2NC(=O)[C@@H]3CCCN3C(=O)[C@H](CC(N)=O)NC(=O)[C@H](C)N(C)C(=O)[C@H](Cc3ccc(O)cc3)NC(=O)CSC[C@@H](C(=O)NCC(N)=O)NC(=O)[C@H](CC(C)C)NC(=O)[C@H](CCCC)N(C)C(=O)[C@H](CCCC)N(C)C(=O)[C@H](Cc3cn(CC(=O)O)c4ccccc34)NC(=O)[C@H](CCN)NC(=O)[C@H](Cc3c[nH]c4ccccc34)NC(=O)[C@@H]3C[C@@H](O)CN3C(=O)[C@H](CC(C)C)NC2=O)cc1 [Example 1099] ({CH2CO}-Y[NMeA]NP[Dap]([CO-X6])L[Hyp]W[Dab][Trp(1-CH2COOH)][NMeNle][NMeNle]LCG-NH2; thioether N-14) | 2.6 | –
CCCC[C@H]1C(=O)N(C)[C@@H](CCCC)C(=O)N[C@@H](CC(C)C)C(=O)N[C@H](C(=O)NCC(N)=O)CSCC(=O)N[C@@H](Cc2ccc(O)cc2)C(=O)N(C)[C@@H](C)C(=O)N[C@@H](CC(N)=O)C(=O)N2CCC[C@H]2C(=O)N[C@@H](CNC(=S)Nc2ccc3nsnc3c2)C(=O)N[C@@H](CC(C)C)C(=O)N2C[C@H](O)C[C@H]2C(=O)N[C@@H](Cc2c[nH]c3ccccc23)C(=O)N[C@@H](CCNC(=S)Nc2ccc3nsnc3c2)C(=O)N[C@@H](Cc2cn(CC(=O)O)c3ccccc23)C(=O)N1C [Example 3008] ({CH2CO}-Y[NMeA]NP[Dap](X59)L[Hyp]W[Dab](X59)[Trp(1-CH2COOH)][NMeNle][NMeNle]LCG-NH2; thioether N-14) | 6.4 | –
CCCC[C@H]1C(=O)N(C)[C@@H](CCCC)C(=O)N[C@@H](CC(C)C)C(=O)N[C@H](C(=O)NCC(N)=O)CSCC(=O)N[C@@H](Cc2ccc(O)cc2)C(=O)N(C)[C@@H](C)C(=O)N[C@@H](CC(N)=O)C(=O)N2CCC[C@H]2C(=O)N[C@@H](CNC(=O)Oc2ccc3ccccc3c2)C(=O)N[C@@H](CC(C)C)C(=O)N2C[C@H](O)C[C@H]2C(=O)N[C@@H](Cc2c[nH]c3ccccc23)C(=O)N[C@@H](CCN)C(=O)N[C@@H](Cc2cn(CC(=O)O)c3ccccc23)C(=O)N1C [Example 3045] ({CH2CO}-Y[NMeA]NP[Dap](X20)L[Hyp]W[Dab][Trp(1-CH2COOH)][NMeNle][NMeNle]LCG-NH2; thioether N-14) | – | 1.3
CCCC[C@H]1C(=O)N(C)[C@@H](CCCC)C(=O)N[C@@H](CC(C)C)C(=O)N[C@H](C(=O)NCC(N)=O)CSCC(=O)N[C@@H](Cc2ccc(O)cc2)C(=O)N(C)[C@@H](C)C(=O)N[C@@H](CC(N)=O)C(=O)N2CCC[C@H]2C(=O)N[C@@H](CNC(=O)Nc2ccc(Cl)cc2C(F)(F)F)C(=O)N[C@@H](CC(C)C)C(=O)N2C[C@H](O)C[C@H]2C(=O)N[C@@H](Cc2c[nH]c3ccccc23)C(=O)N[C@@H](CCNC(=O)Nc2ccc(Cl)cc2C(F)(F)F)C(=O)N[C@@H](Cc2cn(CC(=O)O)c3ccccc23)C(=O)N1C [Example 1138] ({CH2CO}-Y[NMeA]NP[Dap]([CO-X92])L[Hyp]W[Dab]([CO-X92])[Trp(1-CH2COOH)][NMeNle][NMeNle]LCG-NH2; thioether N-14) | 9.7 | –
CCCC[C@H]1C(=O)N(C)[C@@H](CCCC)C(=O)N[C@@H](CC(C)C)C(=O)N[C@H](C(=O)NCC(N)=O)CSCC(=O)N[C@@H](Cc2ccc(O)cc2)C(=O)N(C)[C@@H](C)C(=O)N[C@@H](CC(N)=O)C(=O)N2CCC[C@H]2C(=O)N[C@@H](CNC(=O)Nc2ccc([N+](=O)[O-])cc2C)C(=O)N[C@@H](CC(C)C)C(=O)N2C[C@H](O)C[C@H]2C(=O)N[C@@H](Cc2c[nH]c3ccccc23)C(=O)N[C@@H](CCNC(=O)Nc2ccc([N+](=O)[O-])cc2C)C(=O)N[C@@H](Cc2cn(CC(=O)O)c3ccccc23)C(=O)N1C [Example 1122] ({CH2CO}-Y[NMeA]NP[Dap]([CO-X27])L[Hyp]W[Dab]([CO-X27])[Trp(1-CH2COOH)][NMeNle][NMeNle]LCG-NH2; thioether N-14) | – | 14
CCCC[C@H]1C(=O)N(C)[C@@H](CCCC)C(=O)N[C@@H](CC(C)C)C(=O)N[C@H](C(=O)NCC(N)=O)CSCC(=O)N[C@@H](Cc2ccc(O)cc2)C(=O)N(C)[C@@H](C)C(=O)N[C@@H](CC(N)=O)C(=O)N2CCC[C@H]2C(=O)N[C@@H](CNC(=O)c2ccc3ccccc3c2)C(=O)N[C@@H](CC(C)C)C(=O)N2C[C@H](O)C[C@H]2C(=O)N[C@@H](Cc2c[nH]c3ccccc23)C(=O)N[C@@H](CCNC(=O)c2ccc3ccccc3c2)C(=O)N[C@@H](Cc2cn(CC(=O)OC)c3ccccc23)C(=O)N1C [Example 3009] ({CH2CO}-Y[NMeA]NP[Dap](2Naphthoyl)L[Hyp]W[Dab](2Naphthoyl)[Trp(1-CH2CO2Me)][NMeNle][NMeNle]LCG-NH2; thioether N-14) | 9 | –
CCCC[C@H]1C(=O)N(C)[C@@H](CCCC)C(=O)N[C@@H](CC(C)C)C(=O)N[C@H](C(=O)NCC(N)=O)CSCC(=O)N[C@@H](Cc2ccc(O)cc2)C(=O)N(C)[C@@H](C)C(=O)N[C@@H](CC(N)=O)C(=O)N2CCC[C@H]2C(=O)N[C@@H](CNC(=O)Nc2cc3ccccc3s2)C(=O)N[C@@H](CC(C)C)C(=O)N2C[C@H](O)C[C@H]2C(=O)N[C@@H](Cc2c[nH]c3ccccc23)C(=O)N[C@@H](CCN)C(=O)N[C@@H](Cc2cn(CC(=O)O)c3ccccc23)C(=O)N1C [Example 3032] ({CH2CO}-Y[NMeA]NP[Dap]([CO-X45])L[Hyp]W[Dab][Trp(1-CH2COOH)][NMeNle][NMeNle]LCG-NH2; thioether N-14) | 9.2 | –
CCCCOc1ccc(NC(=O)NCC[C@@H]2NC(=O)[C@H](Cc3c[nH]c4ccccc34)NC(=O)[C@@H]3C[C@@H](O)CN3C(=O)[C@H](CC(C)C)NC(=O)[C@H](CN)NC(=O)[C@@H]3CCCN3C(=O)[C@H](CC(N)=O)NC(=O)[C@H](C)N(C)C(=O)[C@H](Cc3ccc(O)cc3)NC(=O)CSC[C@@H](C(=O)NCC(N)=O)NC(=O)[C@H](CC(C)C)NC(=O)[C@H](CCCC)N(C)C(=O)[C@H](CCCC)N(C)C(=O)[C@H](Cc3cn(CC(=O)O)c4ccccc34)NC2=O)cc1 [Example 1119] ({CH2CO}-Y[NMeA]NP[Dap]L[Hyp]W[Dab]([CO-X39])[Trp(1-CH2COOH)][NMeNle][NMeNle]LCG-NH2; thioether N-14) | 3.4 | –
CCCC[C@H]1C(=O)N(C)[C@@H](CCCC)C(=O)N[C@@H](CC(C)C)C(=O)N[C@H](C(=O)NCC(N)=O)CSCC(=O)N[C@@H](Cc2ccc(O)cc2)C(=O)N(C)[C@@H](C)C(=O)N[C@@H](CC(N)=O)C(=O)N2CCC[C@H]2C(=O)N[C@@H](CNC(=S)Nc2c(Cl)cc(Cl)cc2Cl)C(=O)N[C@@H](CC(C)C)C(=O)N2C[C@H](O)C[C@H]2C(=O)N[C@@H](Cc2c[nH]c3ccccc23)C(=O)N[C@@H](CCN)C(=O)N[C@@H](Cc2cn(CC(=O)O)c3ccccc23)C(=O)N1C [Example 1109] ({CH2CO}-Y[NMeA]NP[Dap](X78)L[Hyp]W[Dab][Trp(1-CH2COOH)][NMeNle][NMeNle]LCG-NH2; thioether N-14) | 1.5 | –
